Assay results: patent publication US7402601B2, “Pharmaceuticals for the treatment of rejection reactions in organ transplantations” (Sanofi-Aventis Deutschland GmbH, priority 1991, dated 2008)

Tests used:
in vivo = conditions: ip
Experimental: Acute Toxicity after Intraperitoneal Administration
The acute toxicity after intraperitoneal administration of the test substances was determined with NMRI mice (20 to 25 g) and SD rats (120 to 195 g). The test substance was suspended in a 1% strength sodium carboxymethyl-cellulose solution. The different dosages of the test substance were administered to the mice in a volume of 10 ml/kg of body weight and to the rats in a volume of 5 ml/kg of body weight. Per dosage, 10 animals were used. After 3 weeks, the acute toxicity was determined by the method of Litchfield and Wilcoxon.

allophilic antibodies = assay: Formation of allophilic antibodies after heart transplantation (Brown-Norway to Lewis rats), complement cytotoxicity on donor spleen cells, Trypan Blue exclusion; format: in vivo
Experimental: The action of compound 2 on the formation of allophilic antibodies.
Male Brown-Norway rats with a weight of 200 to 250 g are used as heart donors. The hearts are transplanted into male Lewis rats of the same weight. All rats are supplied with a standard diet and water and kept in an environment with 12 hours of light and darkness.
[…] The titer of allophilic antibodies in the blood of the recipient rats is determined by incubating various dilutions of the recipient blood with spleen cells of the donor rats (Brown-Norway rats) and rabbit complement. The cytotoxicity is determined by the Trypan Blue exclusion method. The p value for the antibodies is determined using the standard t-test and compared with the untreated control animals.
Treatment with compound 2 begins on the 4th day after transplantation. 10 mg/kg of compound 2 in each case are administered i.p. once per day. The number of animals which are simultaneously treated is 5 (n=5). Treatment ends on the 17th day.

[1] = test system: naturally occurring xenophilic antibodies (NXA); assay: Naturally occurring xenophilic antibodies (NXA) in non-sensitized rats, flow cytometry; format: in vivo; conditions: non-sensitized LEW rats, 10 mg/kg every day i.p., 11th day
Experimental: 2 to 3 month-old rats (LEW) are intraperitoneally (i.p.) sensitized with 2×10^7 human peripheral blood lymphocytes. The i.p. administration of compound 2 starts 4 days before sensitization and ends 10 days after sensitization of the rats. Serum samples are taken from the tail vein and stored at −80° C.; the activity of complement is avoided by heat deactivation.
The naturally occurring xenophilic antibodies (NXA) and the xenophilic antibodies induced by sensitization (SXA) are titrated and live human peripheral blood lymphocytes are added (45 min. at 20° C.). After intensive washing, FITC-labeled goat-anti-rat IgG or IgM antibodies are added and the binding to SXA or NXA is quantitatively determined by flow cytometry (FACScan, Becton Dickinson).
The serum of male LEW rats contain NXA which bind to vital human peripheral blood lymphocytes, to be precise usually with an average IgM titer of 1:4 and an average IgG titer of less than 1:1. The rats (n=8) which are treated every day with 10 mg/kg of compound 2, show a 30% reduction in their IgG titer and a 50% reduction in their IgM titer on the 11th day.

Cc1oncc1C(=O)Nc1ccc(C(F)(F)F)cc1 [Compound 1, N-(4-trifluoromethyl)-5-methylisoxazole-4-carboxanilide] showed an LD50 at 3 weeks (in vivo; NMRI, mouse) of 185 mg/kg and an LD50 at 3 weeks (in vivo; SD, rat) of 170 mg/kg.
With C/C(O)=C(\C#N)C(=O)Nc1ccc(C(F)(F)F)cc1 [Compound 2, N-(4-trifluoromethylphenyl)-2-cyano-3-hydroxycrotonamide] the “mean of the cytotoxicity values” (allophilic antibodies; serum dilution 1:5, day 0 after transplantation (before treatment start on day 4), 10 mg/kg i.p. once per day) was 3%, the “mean of the cytotoxicity values” (allophilic antibodies; serum dilution 1:5, day 4 after transplantation (treatment begins), 10 mg/kg i.p. once per day) was 63% and the “mean of the cytotoxicity values” (allophilic antibodies; serum dilution 1:5, day 7 after transplantation, 10 mg/kg i.p. once per day from day 4) was 36%. The “mean of the cytotoxicity values” (allophilic antibodies; serum dilution 1:5, day 11 after transplantation, 10 mg/kg i.p. once per day from day 4) was 19%, the “mean of the cytotoxicity values” (allophilic antibodies; serum dilution 1:5, day 14 after transplantation, 10 mg/kg i.p. once per day from day 4) was 22% and the “mean of the cytotoxicity values” (allophilic antibodies; serum dilution 1:5, day 17 after transplantation, 10 mg/kg i.p. once per day from day 4) was 11%. For the same compound, the “mean of the cytotoxicity values” (allophilic antibodies; serum dilution 1:25, day 0 after transplantation (before treatment start on day 4), 10 mg/kg i.p. once per day) was 3%, the “mean of the cytotoxicity values” (allophilic antibodies; serum dilution 1:25, day 4 after transplantation (treatment begins), 10 mg/kg i.p. once per day) was 58% and the “mean of the cytotoxicity values” (allophilic antibodies; serum dilution 1:25, day 7 after transplantation, 10 mg/kg i.p. once per day from day 4) was 31%. For the same compound, the “mean of the cytotoxicity values” (allophilic antibodies; serum dilution 1:25, day 11 after transplantation, 10 mg/kg i.p. once per day from day 4) was 16%, the “mean of the cytotoxicity values” (allophilic antibodies; serum dilution 1:25, day 14 after transplantation, 10 mg/kg i.p. once per day from day 4) was 11% and the “mean of the cytotoxicity values” (allophilic antibodies; serum dilution 1:25, day 17 after transplantation, 10 mg/kg i.p. once per day from day 4) was 6%. The “mean of the cytotoxicity values” (allophilic antibodies; serum dilution 1:125, day 0 after transplantation (before treatment start on day 4), 10 mg/kg i.p. once per day) was 4%, the “mean of the cytotoxicity values” (allophilic antibodies; serum dilution 1:125, day 4 after transplantation (treatment begins), 10 mg/kg i.p. once per day) was 34% and the “mean of the cytotoxicity values” (allophilic antibodies; serum dilution 1:125, day 7 after transplantation, 10 mg/kg i.p. once per day from day 4) was 20%. For the same compound, the “mean of the cytotoxicity values” (allophilic antibodies; serum dilution 1:125, day 11 after transplantation, 10 mg/kg i.p. once per day from day 4) was 9%, the “mean of the cytotoxicity values” (allophilic antibodies; serum dilution 1:125, day 14 after transplantation, 10 mg/kg i.p. once per day from day 4) was 6% and the “mean of the cytotoxicity values” (allophilic antibodies; serum dilution 1:125, day 17 after transplantation, 10 mg/kg i.p. once per day from day 4) was 5%. The “reduction in IgG titer (NXA)” value [1] was 30%, the “reduction in IgM titer (NXA)” value [1] was 50% and the LD50 at 3 weeks (in vivo; NMRI, mouse) was 150 mg/kg.
